The values that follow come from US7820722B2, “Permeation enhancers” (Merrion Research III Limited, priority 2001, dated 2010).

Data set [1] in a line: Solubility of the enhancer system in phosphate buffer saline.
Data set [2] in a line: Bioavailability of antisense oligonucleotide after intra-jejunal dosing through a catheter, plasma level by anion-exchange chromatography (Example 3). The class given is in vivo, male rhesus monkeys. As to conditions: rhesus monkey, po. The source says: The compositions were compared by administering them in solution form through a catheter to test subjects. A jejunal catheter is surgically implanted in six male rhesus monkeys (3-5 years, 3-5 Kg) under anesthesia. The catheters are attached to a subcutaneous access port to allow dosing through the port into the jejunum. The animals are allowed to recover at least 7 days prior to dosing. […] The antisense oligonucleotide is detected by anion-exchange chromatography. The formulations and the measurements of bioavailability, Tmax and plasma peak of antisense oligonucleotide after administration of formulations are described in the chart below.

Strand notation (5' to 3'): a small letter for the sugar, then the base; units joined by * are phosphorothioate-linked, units joined directly phosphodiester-linked; [ ] holds rarer units or linkages, { } end groups; capitals alone tell only the bases. e = 2'-O-(2-methoxyethyl) (MOE); [5mC] = 5-methylcytosine; d = 2'-deoxy (DNA)

Consider `CCCCCCCCCCC(CCCCCCCC)C(=O)[O-].[Na+]` (centres unmarked) [sodium 2-n-octyl-dodecanoate], for which, in data set [1], the “Solubility in phosphate buffer saline” value was “not fully soluble”.
Turning to “antisense oligonucleotide: 5-10-5 MOE gapmer phosphorothioate, 5-methylcytosines, targets human TNF-α; GCTGATTAGAGAGAGGTCCC (antisense eG*e[5mC]*eT*eG*eA*dT*dT*dA*dG*dA*dG*dA*dG*dA*dG*eG*eT*e[5mC]*e[5mC]*e[5mC])”, the “permeability without any permeation enhancer systems” value in data set [2] is “poor permeability”.
